From paper PMC12006171, “Marsupial cathelicidins: characterization, antimicrobial activity and evolution in this unique mammalian lineage” (Frontiers in Immunology, 2025)
≈ marks a conversion by molar mass, not a printed value. Like-named read-outs stand apart in the source and are kept apart here. Where a SMILES comes first, the peptide text is derived from it.

What was measured:
Test in all cases: microbe, parasite or virus in culture
Format in all cases: cell-based
[1] = test system: Escherichia coli ATCC 25922; conditions: ATCC 25922; for MIC: read-out: MIC E. coli ATCC
Method: (§1) Antimicrobial testing of 78 cathelicidin MPs was performed in two phases as outlined in Figure 1 . In phase I, 40 peptides (27 extant and 13 ancestral) were selected for testing based on rank (outlined above) and similarity to published marsupial cathelicidins with known antimicrobial activity ([33], [41]–[43]). These peptides were tested against nine bacteria (Staphylococcus aureus ATCC 29213 and clinical isolate, Escherichia coli ATCC 25922 and clinical isolate, Pseudomonas aeruginosa ATCC 27853 and clinical isolate, Streptococcus agalactiae ATCC 12386 and clinical isolate, Streptococcus pneumoniae ATCC 49619) and three fungi (Candida krusei ATCC 6258, Candida parapsilosis ATCC 22019, and Candida albicans clinical isolate). Details regarding these strains are available in Supplementary Table 4 . The antimicrobial activity of cathelicidins was determined as the minimum inhibitory concentration (MIC), which was the lowest concentration of cathelicidin that prevented visible bacterial or fungal growth, relative to the negative control. […] Minimum bactericidal concentration (MBC) and/or minimum fungicidal concentration (MFC) was conducted to determine microbicidal versus static action. Activity against S. aureus ATCC, E. coli ATCC, and Pseudomonas aeruginosa ATCC 27853 was examined in the presence of divalent cations to determine the impact of inhibitors.
(§2) In phase II, the remaining 38 peptides (37 extant and one ancestral) were tested against six bacteria (S. aureus ATCC and clinical isolate, E. coli ATCC and clinical isolate, and P. aeruginosa ATCC and clinical isolate). […] No further testing on phase II peptides was performed. Detailed methods for all assays are provided in subsequent sections.
(§3) Antimicrobial activity was determined using a broth microdilution susceptibility assay in 96 well polypropylene plates according to Clinical Laboratory Standards Institute guidelines M07-A and M26A as described previously ([33], [42], [43]). The bacterial and fungal isolates from humans and animals used in this study are outlined in Supplementary Table 4 . Only yeasts were included in the panel of fungi as they have been used in the susceptibility testing of eutherian ([3], [81]–[83]) and other marsupial cathelicidins previously ([33], [42], [43]). Cathelicidin mature peptides were solubilized in DMSO and serially diluted in duplicate from 128-0.25μg/mL in a final volume of 100µL. For bacteria, cathelicidins were diluted in Mueller Hinton Broth (MHB) with or without 10% lysed horse blood, and with (MH II B) or without (MHB) calcium and magnesium cations. For fungi, cathelicidins were diluted in Roswell Park Memorial Institute medium (RPMI)-1640 MOPS. Ampicillin or tetracycline were included as a positive control for Gram-positive and -negative bacteria respectively, while amphotericin B was used for fungi. A media-only negative control and growth control (no cathelicidin) were also included on each plate. Bacteria were sub-cultured on Muller Hinton agar (MHA) or sheep blood agar (BA), and fungi on Sabouraud dextrose agar (SAB), 20–24 hours prior to the test. Colonies were suspended in saline, the concentration adjusted to a 0.5 McFarland standard, and then diluted in media to a concentration of 1.0 x 10^6 cells/mL. Then, 100μL was added to each well of the cathelicidin dilution plate, giving a final inoculum density of 5 x 10^5 CFU/mL and cathelicidin concentration of 64-0.125μg/mL. Colony counts were performed on MHA/BA/SAB to confirm inoculum density. All plates were incubated at 35°C for 20–24 hours, depending on the strain.
(§4) Colonies were counted and compared to the colony count of the starting inoculum.

[2] = test system: Staphylococcus aureus ATCC 29213; conditions: ATCC 29213; for MIC: read-out: MIC S. aureus ATCC
Method: as §1, §2, §3, §4

[3] = test system: Escherichia coli clinical isolate - animal; conditions: clinical isolate - animal
Method: as §1, §2, §3, §4

[4] = test system: Pseudomonas aeruginosa ATCC 27853
Method: as §1, §2, §3, §4

[5] = test system: Staphylococcus aureus clinical isolate - animal; conditions: clinical isolate - animal; for MIC: read-out: MIC S. aureus
Method: as §1, §2, §3, §4

[6] = test system: Pseudomonas aeruginosa clinical isolate - animal
Method: as §1, §2, §3, §4

[7] = ATCC 27853, read-out: MIC P. aeruginosa ATCC
[8] = clinical isolate - animal, read-out: MIC P. aeruginosa

Structure (SMILES) | MIC E. coli ATCC [1] [µM] | MIC [2] [µM] | MIC [3] [µM] | MIC [4, 7] [µM] | MIC S. aureus [5] [µM] | MIC [6, 8] [µM] | MIC [5] [µM] | MIC [1] [µM] | MBC E. coli ATCC [1] [µM] | MBC S. aureus ATCC [2] [µM] | MBC E. coli [3] [µM] | MBC S. aureus [5] [µM] | other results
CN(C)[C@@H]1C(O)=C(C(N)=O)C(=O)[C@@]2(O)C(O)=C3C(=O)c4c(O)cccc4[C@@](C)(O)[C@H]3C[C@@H]12 [Tetracycline, reference compound] |  |  |  |  |  |  |  |  |  |  |  |  | MIC ([4]; Pseudomonas aeruginosa, ATCC27853, MHB without cations, 5 x 10^5 CFU/mL, 35°C 20–24 hours, duplicate, read-out: MIC P. aeruginosa ATCC): 32 µg/mL; MIC ([4]; Pseudomonas aeruginosa, ATCC27853, superscript value, cation-adjusted Mueller Hinton broth, read-out: MIC in the presence of cations P. aeruginosa ATCC): 32 µg/mL; MIC ([4]; Pseudomonas aeruginosa, ATCC27853, superscript value, cation-adjusted Mueller Hinton broth, µM equivalent, read-out: MIC in the presence of cations P. aeruginosa ATCC): 72 µM; MIC ([4]; Pseudomonas aeruginosa, ATCC27853, µM equivalent of Table 3, read-out: MIC P. aeruginosa ATCC): 72 µM; MIC ([6]; Pseudomonas aeruginosa, clinical isolate, MHB without cations, 5 x 10^5 CFU/mL, 35°C 20–24 hours, duplicate, read-out: MIC P. aeruginosa): 32 µg/mL; MIC ([6]; Pseudomonas aeruginosa, clinical isolate, superscript value, cation-adjusted Mueller Hinton broth, read-out: MIC in the presence of cations P. aeruginosa): 32 µg/mL; MIC ([6]; Pseudomonas aeruginosa, clinical isolate, superscript value, cation-adjusted Mueller Hinton broth, µM equivalent, read-out: MIC in the presence of cations P. aeruginosa): 72 µM; MIC ([6]; Pseudomonas aeruginosa, clinical isolate, µM equivalent of Table 3, read-out: MIC P. aeruginosa): 72 µM
CC[C@H](C)[C@H](NC(=O)[C@H](C)NC(=O)[C@H](CC(N)=O)NC(=O)[C@H](CCCCN)NC(=O)[C@@H](NC(=O)[C@@H](NC(=O)[C@H](CC(N)=O)NC(=O)[C@H](CCCCN)NC(=O)[C@@H](NC(=O)[C@H](CCCCN)NC(=O)[C@H](CC(=O)O)NC(=O)CNC(=O)[C@H](C)NC(=O)[C@H](CCCNC(=N)N)NC(=O)[C@H](CCCCN)NC(=O)[C@H](CC(C)C)NC(=O)[C@H](Cc1ccccc1)NC(=O)[C@H](CC(N)=O)NC(=O)[C@H](CCCCN)NC(=O)[C@H](Cc1ccccc1)NC(=O)[C@H](CCCCN)NC(=O)[C@H](CCC(=O)O)NC(=O)[C@H](Cc1ccccc1)NC(=O)[C@@H](NC(=O)[C@H](CCCNC(=N)N)NC(=O)[C@H](CC(C)C)NC(=O)[C@H](CCCCN)NC(=O)[C@H](CCCCN)NC(=O)[C@@H](NC(=O)[C@H](CC(N)=O)NC(=O)[C@H](CCC(=O)O)NC(=O)[C@@H]1CCCN1C(=O)[C@@H](N)CCCNC(=N)N)[C@@H](C)CC)C(C)C)[C@@H](C)CC)[C@@H](C)O)[C@@H](C)CC)C(=O)N[C@@H](CC(N)=O)C(=O)N[C@@H](CC(N)=O)C(=O)N[C@@H](CC(C)C)C(=O)N[C@@H](Cc1ccccc1)C(=O)N[C@@H](CO)C(=O)O [PeguCath3] (H-RPENIKKLRVFEKFKNFLKRAGDKIKNTIKNAINNLFS-OH) |  | >14.1 | >14.1 | >14.1 |  | >14.1 | >14.1 | 14.1 (≈ 63.9 µg/mL) |  |  |  |  | 

Now from value to molecule, other results behind:

MIC E. coli ATCC [1] [µM] | MIC [2] [µM] | MIC [3] [µM] | MIC [4, 7] [µM] | MIC S. aureus [5] [µM] | MIC [6, 8] [µM] | MIC [5] [µM] | MIC [1] [µM] | Structure (SMILES) | MBC E. coli ATCC [1] [µM] | MBC S. aureus ATCC [2] [µM] | MBC E. coli [3] [µM] | MBC S. aureus [5] [µM] | other results
3.9 (≈ 15.6 µg/mL) | 7.9 (≈ 31.6 µg/mL) | 3.9 (≈ 15.6 µg/mL) | >15.9 | 7.9 (≈ 31.6 µg/mL) | >15.9 |  |  | CC[C@H](C)[C@H](NC(=O)[C@H](CC(C)C)NC(=O)[C@H](CC(N)=O)NC(=O)[C@@H](NC(=O)[C@H](Cc1ccccc1)NC(=O)CNC(=O)[C@@H](N)Cc1c[nH]c2ccccc12)[C@@H](C)O)C(=O)N[C@@H](Cc1ccc(O)cc1)C(=O)N[C@@H](CCC(N)=O)C(=O)N[C@@H](CCCCN)C(=O)N[C@@H](Cc1ccc(O)cc1)C(=O)N[C@@H](CCCCN)C(=O)N[C@@H](CC(C)C)C(=O)N[C@@H](CC(C)C)C(=O)N[C@@H](CCCNC(=N)N)C(=O)N[C@@H](CC(N)=O)C(=O)N[C@H](C(=O)N[C@@H](Cc1ccccc1)C(=O)N[C@@H](CCCNC(=N)N)C(=O)N[C@@H](CCCCN)C(=O)N[C@@H](CC(C)C)C(=O)N[C@@H](CCCNC(=N)N)C(=O)N[C@@H](CC(N)=O)C(=O)N[C@H](C(=O)N[C@@H](CO)C(=O)N[C@@H](CO)C(=O)NCC(=O)NCC(=O)N[C@@H](CCCNC(=N)N)C(=O)N[C@@H](CC(=O)O)C(=O)N[C@@H](CC(N)=O)C(=O)N[C@@H](CCCCN)C(=O)N[C@@H](CCCCN)C(=O)O)[C@@H](C)O)C(C)C [BepeCath4] (H-WGFTNLIYQKYKLLRNVFRKLRNTSSGGRDNKK-OH) | 3.9 (≈ 15.6 µg/mL) | 15.9 (≈ 63.6 µg/mL) | 7.9 (≈ 31.6 µg/mL) | 7.9 (≈ 31.6 µg/mL) | 
1.7 (≈ 7.99 µg/mL) | >13.6 |  | >13.6 |  | >13.6 | >13.6 |  | CC[C@H](C)[C@H](NC(=O)[C@H](CO)NC(=O)[C@H](CCCNC(=N)N)NC(=O)[C@H](CCCNC(=N)N)NC(=O)[C@@H]1CCCN1C(=O)[C@H](CCCNC(=N)N)NC(=O)[C@@H]1CCCN1C(=O)[C@H](Cc1ccccc1)NC(=O)[C@@H]1CCCN1C(=O)[C@H](Cc1ccccc1)NC(=O)CNC(=O)[C@@H]1CCCN1C(=O)[C@H](CCCNC(=N)N)NC(=O)[C@@H]1CCCN1C(=O)[C@H](Cc1ccccc1)NC(=O)[C@@H]1CCCN1C(=O)[C@H](Cc1ccccc1)NC(=O)CNC(=O)[C@@H]1CCCN1C(=O)[C@H](CCCNC(=N)N)NC(=O)[C@@H]1CCCN1C(=O)[C@H](Cc1ccccc1)NC(=O)[C@H](CO)NC(=O)[C@@H]1CCCN1C(=O)[C@H](CCCNC(=N)N)NC(=O)[C@@H]1CCCN1C(=O)[C@H](CCCNC(=N)N)NC(=O)[C@@H]1CCCN1C(=O)[C@H](CCCNC(=N)N)NC(=O)[C@@H]1CCCN1C(=O)[C@H](CC(C)C)NC(=O)[C@H](Cc1ccc(O)cc1)NC(=O)[C@@H]1CCCN1C(=O)[C@H](CCCNC(=N)N)NC(=O)[C@H](CCCNC(=N)N)NC(=O)[C@H](CCC(=O)O)NC(=O)[C@H](CCCNC(=N)N)NC(=O)[C@@H](N)CCCNC(=N)N)C(=O)O [MyfaCath3] (H-RRERRPYLPRPRPRPSFPRPGFPFPRPGFPFPRPRRSI-OH) | 1.7 (≈ 7.99 µg/mL) |  | 3.4 (≈ 16 µg/mL) |  | MIC E. coli [3]: 3.4 µM (≈ 16 µg/mL)
 |  | >17.3 | >17.3 | 8.6 (≈ 31.7 µg/mL) | >17.3 |  | >17.3 | CC[C@H](C)[C@H](NC(=O)[C@H](CC(N)=O)NC(=O)[C@H](CCCNC(=N)N)NC(=O)[C@H](CC(C)C)NC(=O)[C@H](CCCCN)NC(=O)[C@H](CCCNC(=N)N)NC(=O)[C@H](Cc1ccccc1)NC(=O)[C@@H](NC(=O)[C@H](CC(N)=O)NC(=O)[C@H](CCC(N)=O)NC(=O)[C@H](CC(C)C)NC(=O)[C@@H](NC(=O)[C@H](CCCNC(=N)N)NC(=O)[C@H](Cc1ccc(O)cc1)NC(=O)[C@H](CCCCN)NC(=O)[C@H](CCC(N)=O)NC(=O)[C@H](Cc1ccc(O)cc1)NC(=O)[C@@H](NC(=O)[C@H](CC(C)C)NC(=O)[C@@H](N)CC(N)=O)[C@@H](C)CC)[C@@H](C)CC)C(C)C)C(=O)N[C@@H](Cc1ccccc1)C(=O)N[C@@H](CO)C(=O)N[C@@H](CCCNC(=N)N)C(=O)NCC(=O)N[C@@H](CCCNC(=N)N)C(=O)N[C@@H](CC(=O)O)C(=O)N[C@@H](CC(=O)O)C(=O)N[C@@H](CCCCN)C(=O)N[C@@H](CCC(=O)O)C(=O)O [MaruCath9] (H-NLIYQKYRILQNVFRKLRNIFSRGRDDKE-OH) |  | 8.6 (≈ 31.7 µg/mL) |  | 8.6 (≈ 31.7 µg/mL) | MIC S. aureus ATCC [2]: 8.6 µM (≈ 31.7 µg/mL)
